Measured values taken from PubChem BioAssay (NCI).
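Assay format: 96-well plates, 48-hour exposure. At the GI50, growth is halved. The concentration for full growth arrest is given as TGI.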

Columns and labels:
Test in all cases: DTP human tumour cell line panel, 48 h
LOX IMVI melanoma = system: LOX IMVI melanoma
HCT-15 colon = system: HCT-15 colon
NCI-H226 lung = system: NCI-H226 lung
IGROV1 ovarian = system: IGROV1 ovarian
OVCAR-5 ovarian = system: OVCAR-5 ovarian
MDA-MB-435 = system: MDA-MB-435
NCI-H23 lung = system: NCI-H23 lung
SF-268 CNS = system: SF-268 CNS
SW-620 colon = system: SW-620 colon
K-562 leukemia = system: K-562 leukemia
SNB-75 CNS = system: SNB-75 CNS
BT-549 breast = system: BT-549 breast
M14 melanoma = system: M14 melanoma
SNB-19 CNS = system: SNB-19 CNS
MCF7 breast = system: MCF7 breast
MALME-3M melanoma = system: MALME-3M melanoma
SF-295 CNS = system: SF-295 CNS
HOP-62 NSCLC = system: HOP-62 NSCLC
A549 NSCLC = system: A549 NSCLC
MOLT-4 leukemia = system: MOLT-4 leukemia
786-0 renal = system: 786-0 renal
OVCAR-3 ovarian = system: OVCAR-3 ovarian
SN12C renal = system: SN12C renal
CAKI-1 renal = system: CAKI-1 renal
UACC-62 melanoma = system: UACC-62 melanoma
MDA-MB-468 breast = system: MDA-MB-468 breast
HCT-116 colon = system: HCT-116 colon
A498 renal = system: A498 renal
RPMI-8226 leukemia = system: RPMI-8226 leukemia
HL-60(TB) leukemia = system: HL-60(TB) leukemia
HT29 colon = system: HT29 colon
NCI/ADR-RES ovarian = system: NCI/ADR-RES ovarian
EKVX NSCLC = system: EKVX NSCLC
SK-MEL-28 melanoma = system: SK-MEL-28 melanoma
ACHN renal = system: ACHN renal
NCI-H522 lung = system: NCI-H522 lung
TK-10 renal = system: TK-10 renal
SK-MEL-5 melanoma = system: SK-MEL-5 melanoma
T-47D breast = system: T-47D breast
HCC-2998 colon = system: HCC-2998 colon
CCRF-CEM leukemia = system: CCRF-CEM leukemia
MDA-MB-231 breast = system: MDA-MB-231 breast
PC-3 prostate = system: PC-3 prostate
HOP-92 NSCLC = system: HOP-92 NSCLC
RXF 393 renal = system: RXF 393 renal
HS 578T breast = system: HS 578T breast
DU-145 prostate = system: DU-145 prostate
OVCAR-4 ovarian = system: OVCAR-4 ovarian
UACC-257 melanoma = system: UACC-257 melanoma
OVCAR-8 ovarian = system: OVCAR-8 ovarian
U251 CNS = system: U251 CNS
SK-MEL-2 melanoma = system: SK-MEL-2 melanoma
SF-539 CNS = system: SF-539 CNS
KM12 colon = system: KM12 colon

Cc1ccc2c(c1)nc(-c1ccccc1)n2CC(=O)N=Nc1c(O)[nH]c2ccc(Br)cc12
GI50 (LOX IMVI melanoma): 1550 nM
TGI (LOX IMVI melanoma): 2910 nM
GI50 (HCT-15 colon): 1690 nM
TGI (HCT-15 colon): 3180 nM
GI50 (NCI-H226 lung): 1470 nM
TGI (NCI-H226 lung): 2970 nM
GI50 (IGROV1 ovarian): 1710 nM
TGI (IGROV1 ovarian): 3290 nM
GI50 (OVCAR-5 ovarian): 1830 nM
TGI (OVCAR-5 ovarian): 4280 nM
GI50 (MDA-MB-435): 1680 nM
TGI (MDA-MB-435): 3770 nM
GI50 (NCI-H23 lung): 1770 nM
TGI (NCI-H23 lung): 3360 nM
GI50 (SF-268 CNS): 2440 nM
TGI (SF-268 CNS): 8560 nM
GI50 (SW-620 colon): 2200 nM
TGI (SW-620 colon): 5470 nM
GI50 (K-562 leukemia): 3150 nM
TGI (K-562 leukemia): > 100000 nM
GI50 (SNB-75 CNS): 1100 nM
TGI (SNB-75 CNS): 3060 nM
GI50 (BT-549 breast): 1850 nM
TGI (BT-549 breast): 3530 nM
GI50 (M14 melanoma): 1690 nM
TGI (M14 melanoma): 3350 nM
GI50 (SNB-19 CNS): 1950 nM
TGI (SNB-19 CNS): 4280 nM
GI50 (MCF7 breast): 1540 nM
TGI (MCF7 breast): 3160 nM
GI50 (MALME-3M melanoma): 1630 nM
TGI (MALME-3M melanoma): 3100 nM
GI50 (SF-295 CNS): 1540 nM
TGI (SF-295 CNS): 2930 nM
GI50 (HOP-62 NSCLC): 1750 nM
TGI (HOP-62 NSCLC): 3390 nM
GI50 (A549 NSCLC): 1900 nM
TGI (A549 NSCLC): 4030 nM
GI50 (MOLT-4 leukemia): 2220 nM
TGI (MOLT-4 leukemia): 5620 nM
GI50 (786-0 renal): 1730 nM
TGI (786-0 renal): 3160 nM
GI50 (OVCAR-3 ovarian): 1910 nM
TGI (OVCAR-3 ovarian): 3450 nM
GI50 (SN12C renal): 1780 nM
TGI (SN12C renal): 4160 nM
GI50 (CAKI-1 renal): 1540 nM
TGI (CAKI-1 renal): 3620 nM
GI50 (UACC-62 melanoma): 1440 nM
TGI (UACC-62 melanoma): 2800 nM
GI50 (MDA-MB-468 breast): 1750 nM
TGI (MDA-MB-468 breast): 3180 nM
GI50 (HCT-116 colon): 1740 nM
TGI (HCT-116 colon): 3340 nM
GI50 (A498 renal): 2000 nM
TGI (A498 renal): 3990 nM
GI50 (RPMI-8226 leukemia): 2180 nM
TGI (RPMI-8226 leukemia): 5460 nM
GI50 (HL-60(TB) leukemia): 3160 nM
TGI (HL-60(TB) leukemia): > 100000 nM
GI50 (HT29 colon): 1780 nM
TGI (HT29 colon): 3450 nM
GI50 (NCI/ADR-RES ovarian): 1700 nM
TGI (NCI/ADR-RES ovarian): 3270 nM
GI50 (EKVX NSCLC): 1380 nM
TGI (EKVX NSCLC): 2920 nM
GI50 (SK-MEL-28 melanoma): 1650 nM
TGI (SK-MEL-28 melanoma): 3060 nM
GI50 (ACHN renal): 1590 nM
TGI (ACHN renal): 2940 nM
GI50 (NCI-H522 lung): 1870 nM
TGI (NCI-H522 lung): 4100 nM
GI50 (TK-10 renal): 3120 nM
TGI (TK-10 renal): 7140 nM
GI50 (SK-MEL-5 melanoma): 1740 nM
TGI (SK-MEL-5 melanoma): 3580 nM
GI50 (T-47D breast): 1820 nM
TGI (T-47D breast): 4400 nM
GI50 (HCC-2998 colon): 1850 nM
TGI (HCC-2998 colon): 3440 nM
GI50 (CCRF-CEM leukemia): 2090 nM
TGI (CCRF-CEM leukemia): 4960 nM
GI50 (MDA-MB-231 breast): 1890 nM
TGI (MDA-MB-231 breast): 4250 nM
GI50 (PC-3 prostate): 1560 nM
TGI (PC-3 prostate): 3160 nM
GI50 (HOP-92 NSCLC): 1220 nM
TGI (HOP-92 NSCLC): 2640 nM
GI50 (RXF 393 renal): 773 nM
TGI (RXF 393 renal): 2220 nM
GI50 (HS 578T breast): 1860 nM
TGI (HS 578T breast): 5620 nM
GI50 (DU-145 prostate): 2290 nM
TGI (DU-145 prostate): 4850 nM
GI50 (OVCAR-4 ovarian): 1830 nM
TGI (OVCAR-4 ovarian): 3810 nM
GI50 (UACC-257 melanoma): 1730 nM
TGI (UACC-257 melanoma): 3810 nM
GI50 (OVCAR-8 ovarian): 1890 nM
TGI (OVCAR-8 ovarian): 3800 nM
GI50 (U251 CNS): 1760 nM
TGI (U251 CNS): 3430 nM
GI50 (SK-MEL-2 melanoma): 1810 nM
TGI (SK-MEL-2 melanoma): 3640 nM
GI50 (SF-539 CNS): 1630 nM
TGI (SF-539 CNS): 3020 nM
GI50 (KM12 colon): 2060 nM
TGI (KM12 colon): 4890 nM
